Assay results: patent US10266506B2, “Compounds for use in imaging, diagnosing and/or treatment of diseases of the central nervous system or of tumors” (PIRAMAL IMAGING SA, priority 2007, dated 2019)
“Also recorded” adds a separate entry of the source.

Legend:
[1] = Biodistribution in NMRI mice (gamma counter); type: in vivo
Method: For each time point 3 mice have been used. The mice were injected each with 0.178 MBq[^18F]compound 13. After the respective time points the mice were sacrificed, the organs taken out and measured in a gamma counter. The results were decay corrected.

MAO B = target: T1, MAO B (Homo sapiens, UniProt P27338); assay: Autoradiography with [18F]compound 13 on human brain sections (Alzheimer's disease), blocking with MAO B inhibitors; type: binding
T1 construct: Autoradiography using [^18F]compound 13 on human brain slices from four brains from patients with diagnosis of Alzheimer's disease; from tissue; host or cells: human brain sections (Alzheimer's disease patients and normal controls), 18 µm cryosections
T1 sequence (P27338 1-520): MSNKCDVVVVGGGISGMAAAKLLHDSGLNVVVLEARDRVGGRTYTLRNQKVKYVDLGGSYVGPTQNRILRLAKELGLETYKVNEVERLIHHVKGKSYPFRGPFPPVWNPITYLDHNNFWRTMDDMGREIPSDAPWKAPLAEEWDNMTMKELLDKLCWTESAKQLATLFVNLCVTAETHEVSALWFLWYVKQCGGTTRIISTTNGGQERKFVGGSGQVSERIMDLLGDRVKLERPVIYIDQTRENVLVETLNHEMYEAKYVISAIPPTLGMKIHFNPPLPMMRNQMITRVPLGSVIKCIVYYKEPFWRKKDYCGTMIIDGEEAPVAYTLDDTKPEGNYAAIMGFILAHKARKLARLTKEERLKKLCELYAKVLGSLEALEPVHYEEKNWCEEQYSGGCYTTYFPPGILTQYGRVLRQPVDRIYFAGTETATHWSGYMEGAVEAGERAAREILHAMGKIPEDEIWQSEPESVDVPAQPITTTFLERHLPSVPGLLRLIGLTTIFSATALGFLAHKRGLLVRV
Method: (§1) Thereafter, the slides were removed and brought to room temperature. […] The sections were dipped two times into ice cold distilled water, dried at room temperature and exposed to PhosphorImanger plates (FUJI BAS 5000) over night. For detection of the specificity of the signals an excess (10 μM) of Deprenyl, Pargylin (both for MAO B) and Clorgyline (for MAO A), respectively, was used. After exposure, the sections were immunohistochemically stained using a standard protocol with an anti-GFAP antibody to detect reactive astrocytes. Amyloid β plaques were detected with BAY 949172 (Rowe C C et al. Lancet Neutol 2008; 7: 129-135) using the binding protocol as described above.
FIG. 1A Autoradiographic signal after exposure on the PhosphorImager plate.
FIG. 2A Autoradiographic signal after exposure on the PhosphorImager plate.

MAO A = target: T2, MAO A (Homo sapiens, UniProt P21397); assay: Autoradiography with [18F]compound 13 on human brain sections, blocking with MAO A inhibitor clorgyline; type: binding; details: human AD brain slices; excess (10 μM) of Clorgyline
T2 construct: Autoradiography using [^18F]compound 13 on human brain slices from four brains from patients with diagnosis of Alzheimer's disease; from tissue; host or cells: human brain sections (Alzheimer's disease patients), 18 µm cryosections
T2 sequence (P21397 1-527): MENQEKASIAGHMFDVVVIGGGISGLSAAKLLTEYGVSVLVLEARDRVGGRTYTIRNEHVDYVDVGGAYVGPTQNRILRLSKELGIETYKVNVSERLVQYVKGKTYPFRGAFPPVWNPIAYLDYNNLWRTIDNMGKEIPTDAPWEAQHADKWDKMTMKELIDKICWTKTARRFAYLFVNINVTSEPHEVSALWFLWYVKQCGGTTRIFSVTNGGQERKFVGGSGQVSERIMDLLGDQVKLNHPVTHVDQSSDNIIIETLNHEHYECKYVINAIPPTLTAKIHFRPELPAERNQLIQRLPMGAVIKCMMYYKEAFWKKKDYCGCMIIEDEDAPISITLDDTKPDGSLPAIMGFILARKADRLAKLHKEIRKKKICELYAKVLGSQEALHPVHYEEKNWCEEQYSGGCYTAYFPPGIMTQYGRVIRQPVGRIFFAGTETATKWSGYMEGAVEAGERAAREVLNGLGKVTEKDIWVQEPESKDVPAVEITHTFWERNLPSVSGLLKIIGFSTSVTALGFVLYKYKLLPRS
Method: as §1
FIG. 2A Autoradiographic signal after exposure on the PhosphorImager plate. Note the black dots in the tissue slices corresponding to areas with amyloid β plaques (see examples in FIG. 3).

[2] = PET brain uptake (time activity curves, SUV) in a cynomolgus monkey; type: in vivo; details: e.g. striatum
[3] = Plasma radioactivity and plasma metabolites after injection in a cynomolgus monkey; details: compared with [11C]Deprenyl (and compound 5)
Excerpt: Plasma radioactivity profiles have been monitored over time. […] In addition, metabolites occurring in plasma over time have been monitored (FIGS. 8 and 9) for both ligands.

[4] = literature report; cited from earlier work

SMILES | brain uptake of radioactivity ([1]; 2 min p.i.) | brain radioactivity ([1]; 30 min p.i.) | brain radioactivity ([1]; after 4 hours) | correspondence of autoradiographic signal to reactive astrocytes (MAO B; human AD brain slice, GFAP immunoreactivity) | relation of autoradiographic signal to amyloid β plaque load (MAO B; human AD brain slices, amyloid detected with BAY 949172) | blocking of autoradiographic signal by MAO B inhibitors (specificity for MAO B) (MAO B; human AD brain slices, excess (10 μM) of Deprenyl or Pargylin) | blocking of autoradiographic signal by MAO A inhibitor clorgyline (MAO A) | uptake and enrichment in specific regions, higher than [11C]Deprenyl [2] | in vivo metabolic stability [3] | degradation to metabolite (reported) [4]
C#CCN(C)[C@H](C[18F])Cc1ccccc1 [[^18F]compound 13, N-[(2S)-1-(^18F)fluoro-3-phenylpropan-2-yl]-N-methylprop-2-yn-1-amine] | 7.5±0.04 % ID/g | 2.10±0.33 % ID/g | 1.34±0.26 % ID/g | correspondence of the autoradiographic signal to reactive astrocytes is demonstrated | the signal density and intensity corresponds with the amyloid β plaque load | the signals could be blocked with deprenyl and pargylin; also recorded: the signals could be completely blocked with deprenyl | not with clorgyline | about 10% | improved metabolic stability; also recorded: more stable than [^11C]Deprenyl | –
C#CCN(C)CCCCCC[18F] [compound 5] | – | – | – | – | – | – | – | – | – | degraded quickly towards a polar [^18F]-labelled metabolite
